Each structure is given as a SMILES string.

Results on 2 compounds are retold here after ChEMBL document CHEMBL3217640, “Labile natural products” (Medchemcomm, 2012).

One data set deals with Mus musculus. The experiment in a line: Toxicity in po dosed mouse. Type of data set: organism-based. Conditions: in vivo.
A further data set concerns Rattus norvegicus. The data set is described as follows: Antiinflammatory activity in Wistar rat assessed as inhibition of heat-killed Mycobacterium butyricum-induced paw swelling at 10 mg/kg, po administered on day 10 to 15 measured everyday of compound dosing by plethysmometer relative to control. It is filed as functional. As to conditions: 240 h.

Take `O=C(O)C1C=C1`: in the data set with Mus musculus, the LD100 is 2.5 mg/kg. For `CCCCCc1oc(CCCCCCCCCCC(=O)OCC)c(C)c1C`, the inhibition in vivo at 10 mg/kg in the data set with Rattus norvegicus came to 74%.

As usually defined, the inhibition in vivo is the relative decrease from the control value, in per cent.
